Results: ChEMBL document CHEMBL3991601, “The target landscape of clinical kinase drugs” (Science, 2017)
The source made the active and inactive calls.

How the values were obtained:
[1] = molecular target: Serine/threonine-protein kinase PAK 6 (Homo sapiens, UniProt Q9NQU5)
[2] = molecular target: Protein kinase C theta type (Homo sapiens, UniProt Q04759)
[3] = molecular target: Cyclin-dependent kinase 17 (Homo sapiens, UniProt Q00537)
[4] = molecular target: Membrane-associated progesterone receptor component 1 (Homo sapiens, UniProt O00264)
Chain of Membrane-associated progesterone receptor component 1 (O00264 whole entry): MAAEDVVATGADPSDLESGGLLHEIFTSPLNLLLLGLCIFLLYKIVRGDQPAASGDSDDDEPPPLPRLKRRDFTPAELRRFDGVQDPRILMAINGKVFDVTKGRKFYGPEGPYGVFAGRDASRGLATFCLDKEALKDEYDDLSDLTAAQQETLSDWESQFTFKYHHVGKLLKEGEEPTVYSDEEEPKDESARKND

[5] = molecular target: Cell division cycle 7-related protein kinase (Homo sapiens, UniProt O00311)
[6] = molecular target: Mitogen-activated protein kinase 14 (Homo sapiens, UniProt Q16539)
Misshapen-like kinase 1 = Misshapen-like kinase 1 (Homo sapiens, UniProt Q8N4C8)
Chain of Misshapen-like kinase 1 (Q8N4C8 whole entry): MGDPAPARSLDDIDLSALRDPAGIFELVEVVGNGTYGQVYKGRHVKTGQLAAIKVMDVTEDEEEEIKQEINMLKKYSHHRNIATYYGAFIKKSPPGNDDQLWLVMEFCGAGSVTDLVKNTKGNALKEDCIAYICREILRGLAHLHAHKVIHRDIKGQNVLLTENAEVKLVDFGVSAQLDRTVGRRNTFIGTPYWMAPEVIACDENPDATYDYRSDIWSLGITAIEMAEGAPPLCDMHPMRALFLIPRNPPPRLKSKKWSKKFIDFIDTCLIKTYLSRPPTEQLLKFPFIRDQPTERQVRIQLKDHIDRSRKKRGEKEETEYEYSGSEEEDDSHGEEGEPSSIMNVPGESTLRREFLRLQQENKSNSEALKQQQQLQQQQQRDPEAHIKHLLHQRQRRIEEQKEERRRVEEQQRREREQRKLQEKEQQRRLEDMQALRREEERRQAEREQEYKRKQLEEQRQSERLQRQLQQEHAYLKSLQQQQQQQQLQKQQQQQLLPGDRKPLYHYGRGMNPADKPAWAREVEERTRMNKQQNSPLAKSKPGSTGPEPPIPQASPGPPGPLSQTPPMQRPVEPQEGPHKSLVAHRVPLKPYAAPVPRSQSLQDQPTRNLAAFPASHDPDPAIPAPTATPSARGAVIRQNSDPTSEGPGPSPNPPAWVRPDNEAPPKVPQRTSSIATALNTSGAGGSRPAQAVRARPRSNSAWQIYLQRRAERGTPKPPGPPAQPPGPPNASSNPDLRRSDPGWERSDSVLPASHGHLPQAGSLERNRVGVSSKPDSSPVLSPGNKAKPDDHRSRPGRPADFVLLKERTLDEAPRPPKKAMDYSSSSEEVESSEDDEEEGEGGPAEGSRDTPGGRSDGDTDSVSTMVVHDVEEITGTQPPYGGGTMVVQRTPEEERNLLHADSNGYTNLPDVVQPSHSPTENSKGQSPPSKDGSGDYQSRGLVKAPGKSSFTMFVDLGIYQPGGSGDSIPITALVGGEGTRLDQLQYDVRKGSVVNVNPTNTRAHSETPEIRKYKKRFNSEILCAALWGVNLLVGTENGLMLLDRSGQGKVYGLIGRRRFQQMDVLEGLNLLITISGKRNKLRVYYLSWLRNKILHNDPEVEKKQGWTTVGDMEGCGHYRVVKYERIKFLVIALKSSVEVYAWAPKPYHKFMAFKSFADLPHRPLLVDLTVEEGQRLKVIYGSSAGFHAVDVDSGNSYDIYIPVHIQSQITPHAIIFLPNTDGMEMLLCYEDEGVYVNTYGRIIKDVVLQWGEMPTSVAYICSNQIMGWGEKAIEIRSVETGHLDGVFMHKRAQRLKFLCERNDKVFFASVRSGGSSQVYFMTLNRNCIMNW

[7] = molecular target: T1, Cyclin-dependent kinase-like 5 (Homo sapiens, UniProt O76039)
T1 sequence (O76039 whole entry): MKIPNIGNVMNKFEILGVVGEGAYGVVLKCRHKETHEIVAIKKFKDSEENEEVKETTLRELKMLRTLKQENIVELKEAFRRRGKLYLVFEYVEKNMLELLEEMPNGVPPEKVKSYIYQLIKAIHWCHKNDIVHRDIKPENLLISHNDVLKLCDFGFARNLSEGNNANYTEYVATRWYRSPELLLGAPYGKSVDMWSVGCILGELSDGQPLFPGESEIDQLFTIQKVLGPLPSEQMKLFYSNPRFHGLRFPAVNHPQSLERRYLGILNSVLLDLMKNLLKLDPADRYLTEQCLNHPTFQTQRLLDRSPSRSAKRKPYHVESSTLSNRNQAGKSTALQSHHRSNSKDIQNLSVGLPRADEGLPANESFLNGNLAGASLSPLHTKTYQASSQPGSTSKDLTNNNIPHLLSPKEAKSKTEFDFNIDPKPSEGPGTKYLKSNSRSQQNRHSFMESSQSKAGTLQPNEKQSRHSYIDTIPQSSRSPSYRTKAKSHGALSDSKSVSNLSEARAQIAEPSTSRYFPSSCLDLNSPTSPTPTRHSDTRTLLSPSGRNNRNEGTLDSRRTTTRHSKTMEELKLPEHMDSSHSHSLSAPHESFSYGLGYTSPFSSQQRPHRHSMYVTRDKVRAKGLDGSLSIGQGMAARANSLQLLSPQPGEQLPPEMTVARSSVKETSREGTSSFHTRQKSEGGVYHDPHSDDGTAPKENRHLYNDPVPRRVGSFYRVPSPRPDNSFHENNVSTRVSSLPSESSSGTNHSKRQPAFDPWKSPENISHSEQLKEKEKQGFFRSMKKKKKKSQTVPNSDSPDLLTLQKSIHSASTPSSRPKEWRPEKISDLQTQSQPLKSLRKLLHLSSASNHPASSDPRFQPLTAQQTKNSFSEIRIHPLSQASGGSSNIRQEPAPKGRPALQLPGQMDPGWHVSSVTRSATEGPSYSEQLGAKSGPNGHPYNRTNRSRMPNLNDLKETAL

[8] = molecular target: Serine/threonine-protein kinase 24 (Homo sapiens, UniProt Q9Y6E0)
Chain of Serine/threonine-protein kinase 24 (Q9Y6E0 whole entry): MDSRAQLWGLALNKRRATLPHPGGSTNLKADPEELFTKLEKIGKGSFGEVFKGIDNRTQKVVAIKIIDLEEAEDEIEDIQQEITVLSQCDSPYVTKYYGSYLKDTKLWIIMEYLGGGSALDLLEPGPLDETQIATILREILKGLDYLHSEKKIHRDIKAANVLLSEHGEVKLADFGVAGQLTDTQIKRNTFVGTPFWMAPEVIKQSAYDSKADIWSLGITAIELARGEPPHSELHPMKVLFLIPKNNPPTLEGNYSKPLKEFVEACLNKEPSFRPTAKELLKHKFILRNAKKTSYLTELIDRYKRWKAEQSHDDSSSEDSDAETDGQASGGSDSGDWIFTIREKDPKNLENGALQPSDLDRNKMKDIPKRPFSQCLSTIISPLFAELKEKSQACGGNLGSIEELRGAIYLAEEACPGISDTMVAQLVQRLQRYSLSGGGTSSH

[9] = molecular target: T2, Protein kinase C zeta type (Homo sapiens, UniProt Q05513)
T2 sequence (Q05513 whole entry): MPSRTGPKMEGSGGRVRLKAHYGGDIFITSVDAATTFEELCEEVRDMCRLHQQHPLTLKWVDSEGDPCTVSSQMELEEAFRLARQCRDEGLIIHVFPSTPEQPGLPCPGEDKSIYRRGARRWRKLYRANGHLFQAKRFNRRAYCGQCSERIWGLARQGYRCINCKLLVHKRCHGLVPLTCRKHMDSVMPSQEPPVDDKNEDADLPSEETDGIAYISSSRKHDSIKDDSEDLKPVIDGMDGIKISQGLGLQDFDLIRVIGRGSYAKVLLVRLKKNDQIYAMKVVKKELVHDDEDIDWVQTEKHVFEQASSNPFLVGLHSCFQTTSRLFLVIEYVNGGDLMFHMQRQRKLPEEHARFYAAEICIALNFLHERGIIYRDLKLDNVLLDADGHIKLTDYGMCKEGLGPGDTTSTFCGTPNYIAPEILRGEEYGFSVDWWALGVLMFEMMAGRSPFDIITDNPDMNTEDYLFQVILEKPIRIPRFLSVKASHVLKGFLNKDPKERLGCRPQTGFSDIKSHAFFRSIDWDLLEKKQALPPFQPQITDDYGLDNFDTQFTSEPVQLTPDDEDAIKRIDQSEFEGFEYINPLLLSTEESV

[10] = molecular target: Choline-phosphate cytidylyltransferase A (Homo sapiens, UniProt P49585)
[11] = molecular target: Hepatocyte growth factor receptor (Homo sapiens, UniProt P08581)
Chain of Hepatocyte growth factor receptor (P08581 whole entry): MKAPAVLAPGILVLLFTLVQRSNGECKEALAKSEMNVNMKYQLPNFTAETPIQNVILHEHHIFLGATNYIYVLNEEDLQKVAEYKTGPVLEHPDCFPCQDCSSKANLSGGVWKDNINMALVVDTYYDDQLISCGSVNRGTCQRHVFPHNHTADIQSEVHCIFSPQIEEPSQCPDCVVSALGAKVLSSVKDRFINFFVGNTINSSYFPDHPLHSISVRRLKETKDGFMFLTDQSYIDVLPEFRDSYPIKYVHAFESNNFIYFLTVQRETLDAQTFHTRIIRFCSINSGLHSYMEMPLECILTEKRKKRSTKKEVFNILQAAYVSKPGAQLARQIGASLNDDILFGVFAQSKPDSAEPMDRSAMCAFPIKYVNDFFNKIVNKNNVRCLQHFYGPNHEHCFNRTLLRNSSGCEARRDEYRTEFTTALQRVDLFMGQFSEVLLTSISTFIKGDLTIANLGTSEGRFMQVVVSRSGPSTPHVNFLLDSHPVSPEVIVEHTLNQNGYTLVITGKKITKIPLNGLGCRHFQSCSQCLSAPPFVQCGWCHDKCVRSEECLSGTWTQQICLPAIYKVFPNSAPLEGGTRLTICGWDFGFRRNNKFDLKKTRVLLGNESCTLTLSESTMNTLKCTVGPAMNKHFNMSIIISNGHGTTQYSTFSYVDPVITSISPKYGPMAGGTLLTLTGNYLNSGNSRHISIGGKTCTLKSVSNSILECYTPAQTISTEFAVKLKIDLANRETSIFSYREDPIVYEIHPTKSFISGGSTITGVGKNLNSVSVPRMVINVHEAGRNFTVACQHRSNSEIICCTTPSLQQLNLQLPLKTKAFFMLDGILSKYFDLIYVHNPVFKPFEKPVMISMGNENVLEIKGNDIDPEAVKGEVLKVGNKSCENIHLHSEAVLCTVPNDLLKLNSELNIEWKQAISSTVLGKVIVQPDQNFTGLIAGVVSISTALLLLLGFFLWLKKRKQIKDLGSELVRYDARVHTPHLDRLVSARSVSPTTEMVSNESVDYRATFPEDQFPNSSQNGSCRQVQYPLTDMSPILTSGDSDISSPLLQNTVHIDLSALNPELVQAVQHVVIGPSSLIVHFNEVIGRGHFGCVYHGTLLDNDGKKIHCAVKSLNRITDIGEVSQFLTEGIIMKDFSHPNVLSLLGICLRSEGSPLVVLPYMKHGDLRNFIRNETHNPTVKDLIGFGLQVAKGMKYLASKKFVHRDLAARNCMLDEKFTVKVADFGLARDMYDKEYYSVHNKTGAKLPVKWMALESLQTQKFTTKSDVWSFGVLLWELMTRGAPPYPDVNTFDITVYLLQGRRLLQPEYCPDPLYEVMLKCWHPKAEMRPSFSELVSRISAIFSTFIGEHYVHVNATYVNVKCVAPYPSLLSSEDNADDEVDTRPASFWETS
Further: in the data inactive means no Kd found up to 30 µM.

Chain of Protein kinase C theta type (Q04759 whole entry): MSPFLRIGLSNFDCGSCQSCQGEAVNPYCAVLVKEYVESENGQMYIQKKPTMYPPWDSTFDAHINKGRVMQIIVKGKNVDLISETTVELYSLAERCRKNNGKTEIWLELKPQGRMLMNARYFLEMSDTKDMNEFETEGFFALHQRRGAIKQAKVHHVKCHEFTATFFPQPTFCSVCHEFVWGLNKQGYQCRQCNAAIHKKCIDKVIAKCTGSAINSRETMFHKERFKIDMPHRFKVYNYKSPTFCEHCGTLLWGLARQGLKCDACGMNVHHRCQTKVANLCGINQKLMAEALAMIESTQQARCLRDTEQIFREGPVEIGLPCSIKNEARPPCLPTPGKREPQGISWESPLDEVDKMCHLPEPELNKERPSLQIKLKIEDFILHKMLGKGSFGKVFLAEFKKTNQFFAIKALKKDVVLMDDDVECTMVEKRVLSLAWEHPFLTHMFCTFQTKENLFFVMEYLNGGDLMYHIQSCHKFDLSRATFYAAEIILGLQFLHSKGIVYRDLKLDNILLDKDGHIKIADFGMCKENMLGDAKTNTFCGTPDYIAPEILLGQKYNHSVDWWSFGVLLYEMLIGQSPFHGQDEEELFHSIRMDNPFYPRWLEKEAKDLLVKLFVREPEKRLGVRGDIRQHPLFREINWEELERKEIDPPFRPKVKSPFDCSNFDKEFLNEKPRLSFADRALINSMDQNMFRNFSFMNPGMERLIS
Chain of Serine/threonine-protein kinase PAK 6 (Q9NQU5 whole entry): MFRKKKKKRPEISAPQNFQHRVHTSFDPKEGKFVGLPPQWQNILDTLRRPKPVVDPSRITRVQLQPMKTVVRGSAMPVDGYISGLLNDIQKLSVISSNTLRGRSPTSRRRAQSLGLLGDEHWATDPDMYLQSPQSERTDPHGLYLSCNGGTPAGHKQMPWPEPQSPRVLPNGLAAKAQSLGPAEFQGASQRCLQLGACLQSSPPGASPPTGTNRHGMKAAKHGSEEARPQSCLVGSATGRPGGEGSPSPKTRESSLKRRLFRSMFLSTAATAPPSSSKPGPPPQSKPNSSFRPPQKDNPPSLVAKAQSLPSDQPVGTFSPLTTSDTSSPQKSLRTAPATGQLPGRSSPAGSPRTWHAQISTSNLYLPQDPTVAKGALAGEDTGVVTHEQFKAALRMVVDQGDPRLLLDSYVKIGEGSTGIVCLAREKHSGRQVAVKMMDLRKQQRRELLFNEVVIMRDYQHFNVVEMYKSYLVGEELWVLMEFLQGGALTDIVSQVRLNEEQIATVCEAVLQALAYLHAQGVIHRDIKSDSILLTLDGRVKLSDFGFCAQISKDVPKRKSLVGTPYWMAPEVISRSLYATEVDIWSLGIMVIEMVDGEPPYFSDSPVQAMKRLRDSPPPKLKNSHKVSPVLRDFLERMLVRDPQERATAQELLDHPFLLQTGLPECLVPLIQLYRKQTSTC

| SMILES | Kd [1] | Kd [2] | Kd [3] | Kd [4] | Kd [5] | Kd [6] | Kd (Misshapen-like kinase 1) | Kd [7] | Kd [8] | Kd [9] | Kd [10] | Kd [11] |
| --- | --- | --- | --- | --- | --- | --- | --- | --- | --- | --- | --- | --- |
| Cn1ncc(Cl)c1-c1cc(C(=O)N[C@H](CN)Cc2cccc(F)c2)sc1Cl [AFURESERTIB] | > 30 µM (inactive) | > 30 µM (inactive) | > 30 µM (inactive) | > 30 µM (inactive) | > 30 µM (inactive) | > 30 µM (inactive) |  |  |  |  |  |  |
| CC[C@H](Nc1ncnc2[nH]cnc12)c1nc2cccc(F)c2c(=O)n1-c1ccccc1 [IDELALISIB] | > 30 µM (inactive) | > 30 µM (inactive) | > 30 µM (inactive) | > 30 µM (inactive) |  | > 30 µM (inactive) | > 30 µM (inactive) | > 30 µM (inactive) | > 30 µM (inactive) |  |  |  |
| CC(C)Nc1cc(-c2c[nH]c(C(=O)N[C@H](CO)c3cccc(Cl)c3)c2)c(Cl)cn1 [ULIXERTINIB] | > 30 µM (inactive) | > 30 µM (inactive) | > 30 µM (inactive) | > 30 µM (inactive) | > 30 µM (inactive) | > 30 µM (inactive) |  | > 30 µM (inactive) | > 30 µM (inactive) |  |  | > 30 µM (inactive) |
| COc1cc2nccc(Oc3ccc(NC(=O)NC4CC4)c(Cl)c3)c2cc1C(N)=O [LENVATINIB] |  | > 30 µM (inactive) | > 30 µM (inactive) | > 30 µM (inactive) |  | 0.217 µM (active) | > 30 µM (inactive) |  | > 30 µM (inactive) |  |  | > 30 µM (inactive) |
| CN1CCN(c2ccc3nc(-c4c(N)c5c(F)cccc5[nH]c4=O)[nH]c3c2)CC1 [DOVITINIB] |  |  |  | > 30 µM (inactive) |  |  |  |  |  | > 30 µM (inactive) | > 30 µM (inactive) |  |
| CCn1c(=O)c(-c2cc[nH]n2)cc2c(C)nc(N)nc21 [VOXTALISIB] |  | > 30 µM (inactive) |  | > 30 µM (inactive) | > 30 µM (inactive) |  |  |  | > 30 µM (inactive) | > 30 µM (inactive) |  |  |
| Cn1cc(-c2ccc(F)c(C(F)(F)F)c2)nc1C1CCN(c2ncnc3[nH]ncc23)CC1 [LY-2584702] |  | > 30 µM (inactive) |  | > 30 µM (inactive) |  | > 30 µM (inactive) | > 30 µM (inactive) | > 30 µM (inactive) | > 30 µM (inactive) |  |  | > 30 µM (inactive) |
| N[C@@H]1CCCN(c2c(/C=C3\SC(=O)NC3=O)cccc2-c2ccccc2)C1 |  |  |  | > 30 µM (inactive) |  | > 30 µM (inactive) |  | > 30 µM (inactive) | > 30 µM (inactive) |  | > 30 µM (inactive) | > 30 µM (inactive) |
| COCCNCc1ccc(-c2cc3nccc(Oc4ccc(NC(=S)NC(=O)Cc5ccc(F)cc5)cc4F)c3s2)nc1 [GLESATINIB] | > 30 µM (inactive) | > 30 µM (inactive) | > 30 µM (inactive) | > 30 µM (inactive) | > 30 µM (inactive) | > 30 µM (inactive) |  | > 30 µM (inactive) | > 30 µM (inactive) | > 30 µM (inactive) | > 30 µM (inactive) |  |
| COc1cc(OC)c(/C=C/S(=O)(=O)Cc2ccc(OC)c(NCC(=O)O)c2)c(OC)c1 [RIGOSERTIB] | > 30 µM (inactive) | > 30 µM (inactive) | > 30 µM (inactive) |  | > 30 µM (inactive) | > 30 µM (inactive) |  | > 30 µM (inactive) | > 30 µM (inactive) | > 30 µM (inactive) | > 30 µM (inactive) | 0.94 µM (active) |
| O=C(Nc1cccc(Cl)c1)Nc1ncc(CCNc2ncnc3ccsc23)s1 [SNS-314] |  |  |  | > 30 µM (inactive) |  |  |  | > 30 µM (inactive) | > 30 µM (inactive) |  |  |  |
| C1=C/COCc2cc(ccc2OCCN2CCCC2)Nc2nccc(n2)-c2cccc(c2)COC/1 [PACRITINIB] |  |  |  |  |  | > 30 µM (inactive) |  | > 30 µM (inactive) | > 30 µM (inactive) |  |  | > 30 µM (inactive) |
| C[C@@H](c1ccc2nccn2c1)n1nnc2ncc(-c3cnn(C)c3)nc21 [SAVOLITINIB] |  |  | > 30 µM (inactive) | > 30 µM (inactive) |  | > 30 µM (inactive) | > 30 µM (inactive) |  | > 30 µM (inactive) |  |  |  |
| Cc1cn(-c2cc(NC(=O)c3ccc(C)c(Nc4nccc(-c5cccnc5)n4)c3)cc(C(F)(F)F)c2)cn1 [NILOTINIB] |  |  |  | > 30 µM (inactive) | > 30 µM (inactive) |  |  |  |  | > 30 µM (inactive) |  |  |
| Nc1nc(N)c2nc(-c3cccc(O)c3)c(-c3cccc(O)c3)nc2n1 [TG100-115] |  |  |  |  |  |  |  |  |  | > 30 µM (inactive) |  |  |
| CN1N=C(N)c2cn([C@@H]3O[C@H](COP(=O)(O)O)[C@@H](O)[C@H]3O)c3ncnc1c23 [TRICIRIBINE PHOSPHATE] |  | > 30 µM (inactive) |  | > 30 µM (inactive) | > 30 µM (inactive) | > 30 µM (inactive) |  |  | > 30 µM (inactive) |  | > 30 µM (inactive) | > 30 µM (inactive) |
| CCS(=O)(=O)N1CC(CC#N)(n2cc(-c3ncnc4[nH]ccc34)cn2)C1 [BARICITINIB] | > 30 µM (inactive) | > 30 µM (inactive) | > 30 µM (inactive) | > 30 µM (inactive) |  | > 30 µM (inactive) | > 30 µM (inactive) |  | > 30 µM (inactive) |  |  | > 30 µM (inactive) |
| CCCS(=O)(=O)Nc1ccc(F)c(C(=O)c2c[nH]c3ncc(-c4ccc(Cl)cc4)cc23)c1F [VEMURAFENIB] |  | > 30 µM (inactive) | > 30 µM (inactive) | > 30 µM (inactive) |  | > 30 µM (inactive) |  |  |  |  |  | > 30 µM (inactive) |

Results, then the molecule that gave them:

| Kd [1] | Kd [2] | Kd [3] | Kd [4] | Kd [5] | Kd [6] | Kd (Misshapen-like kinase 1) | Kd [7] | Kd [8] | Kd [9] | Kd [10] | Kd [11] | SMILES |
| --- | --- | --- | --- | --- | --- | --- | --- | --- | --- | --- | --- | --- |
| > 30 µM (inactive) | > 30 µM (inactive) | > 30 µM (inactive) | > 30 µM (inactive) | > 30 µM (inactive) | > 30 µM (inactive) |  | > 30 µM (inactive) |  | > 30 µM (inactive) | > 30 µM (inactive) | 0.002 µM (active) | Cn1cc(-c2ccc3nnc(C(F)(F)c4ccc5ncccc5c4)n3n2)cn1 [JNJ-38877605] |
| > 30 µM (inactive) | > 30 µM (inactive) |  |  | > 30 µM (inactive) | > 30 µM (inactive) |  | > 30 µM (inactive) | > 30 µM (inactive) | > 30 µM (inactive) | > 30 µM (inactive) | > 30 µM (inactive) | O=C(Nc1ccc(-c2ccnc(Nc3ccc(N4CCOCC4)cc3)n2)cc1)C1CCCN1 (stereo not given) [XL-019] |
| > 30 µM (inactive) | > 30 µM (inactive) | > 30 µM (inactive) | > 30 µM (inactive) | > 30 µM (inactive) | > 30 µM (inactive) |  | > 30 µM (inactive) | > 30 µM (inactive) | > 30 µM (inactive) |  | > 30 µM (inactive) | COc1cc(CCc2cc(NC(=O)c3ccc(N4C[C@@H](C)N[C@@H](C)C4)cc3)n[nH]2)cc(OC)c1 [AZD-4547] |
| > 30 µM (inactive) |  | > 30 µM (inactive) | > 30 µM (inactive) |  |  | > 30 µM (inactive) |  |  |  |  | > 30 µM (inactive) | CNC(=O)c1ccc(C)c(-n2c(C)cc(OCc3ccc(F)cc3F)c(Br)c2=O)c1 [PH-797804] |
|  |  |  | > 30 µM (inactive) |  |  |  |  |  | > 30 µM (inactive) |  |  | CCn1c(-c2nonc2N)nc2c(C#CC(C)(C)O)ncc(OC[C@H]3CCCNC3)c21 [GSK-690693] |
| > 30 µM (inactive) |  | > 30 µM (inactive) |  | > 30 µM (inactive) | > 30 µM (inactive) |  | > 30 µM (inactive) | > 30 µM (inactive) |  |  | > 30 µM (inactive) | C[C@@H](Nc1cc(F)cc(F)c1)c1cc(C(=O)N(C)C)cc2c(=O)cc(N3CCOCC3)oc12 [AZD-8186] |
